Results as given in patent US7514254B2, “Plant-derived alkaline alpha-galactosidase” (The State of Israel, Ministry of Agriculture & Rural …, priority 1998, dated 2009).

Columns and labels:
[1] = molecular target: T1, melon (Cucumis melo) fruit alkaline alpha-galactosidase Form II (Cucumis melo, UniProt Q84NI6); assay: Inhibition of alkaline alpha-galactosidase Form II by alternative substrate (galactose release); format: biochemical, muskmelon (Cucumis melo L. cv C-8); settings: read-out: inhibition by excess raffinose (galactose release)
T1 construct: native 102 kDa, denatured 92 kDa; assayed at pH 7.5
T1 sequence (Q84NI6 1-772): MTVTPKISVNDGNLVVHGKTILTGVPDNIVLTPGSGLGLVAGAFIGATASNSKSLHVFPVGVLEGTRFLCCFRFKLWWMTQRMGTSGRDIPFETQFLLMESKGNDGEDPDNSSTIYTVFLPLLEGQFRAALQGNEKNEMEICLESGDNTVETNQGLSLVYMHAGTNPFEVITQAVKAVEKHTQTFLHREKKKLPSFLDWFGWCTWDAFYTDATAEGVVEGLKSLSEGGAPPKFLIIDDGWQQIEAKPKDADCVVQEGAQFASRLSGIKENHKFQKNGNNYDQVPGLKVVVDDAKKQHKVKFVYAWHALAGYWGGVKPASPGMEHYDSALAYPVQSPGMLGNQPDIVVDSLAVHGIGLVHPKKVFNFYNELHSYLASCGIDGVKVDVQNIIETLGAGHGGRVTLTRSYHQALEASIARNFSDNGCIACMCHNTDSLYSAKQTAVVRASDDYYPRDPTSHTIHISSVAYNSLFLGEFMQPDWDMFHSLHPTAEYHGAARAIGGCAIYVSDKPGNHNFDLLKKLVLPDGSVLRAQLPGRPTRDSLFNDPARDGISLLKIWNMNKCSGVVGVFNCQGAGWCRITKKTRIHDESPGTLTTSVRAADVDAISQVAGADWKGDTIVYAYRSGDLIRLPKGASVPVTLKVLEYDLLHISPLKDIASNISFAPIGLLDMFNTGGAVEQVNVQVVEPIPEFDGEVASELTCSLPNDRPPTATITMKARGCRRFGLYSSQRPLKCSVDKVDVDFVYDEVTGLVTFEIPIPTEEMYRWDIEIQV
Method: (§1) For routine analysis and monitoring the activity in the purification steps, alpha-galactosidase was assayed as described by Smart and Pharr (“Characterization of alpha-galactosidase from cucumber leaves”, Plant Physiology, 66:731-734, 1980), using p-nitrophenyl alpha-galactoside (pNPG) as substrate. Reaction was initiated by adding 50 μl enzyme aliquot to either 200 μl 100 mM pH 5.5 McIlvaine buffer or 100 mM pH 7.5 HEPES buffer, containing 5 mM pNPG at 35 C. The reaction was terminated after 10 min by adding 1 ml of 5% (w/v) Na2CO3 and activity expressed as nmol nitrophenol per min as measured at 410 nm. […] The assay was started by adding 50 μl enzyme preparation at 35 C and terminated after 10 to 20 min by 2 min boiling.

[2] = system: Pseudomonas fluorescens H-601 alpha-galactosidase; settings: Hashimoto et al. 1991; relative Km values; cited from earlier work
[3] = system: Cucurbita pepo leaf alkaline alpha-galactosidase ("LIV" enzyme); assay: Substrate kinetics of Cucurbita pepo leaf alkaline alpha-galactosidase (Gaudreault and Webb); format: biochemical; settings: calculated for prior art "LIV" enzyme of Gaudreault and Webb
[4] = system: Cucurbita pepo leaf alkaline alpha-galactosidase ("LIV" enzyme); settings: Gaudreault and Webb; alkaline form; cited from earlier work
[5] = molecular target: T1, melon (Cucumis melo) fruit alkaline alpha-galactosidase Form II; assay: Substrate kinetics (Lineweaver-Burk) of alkaline alpha-galactosidase Form II; format: biochemical, muskmelon (Cucumis melo L. cv C-8)
Method: as §1
(§2) The fractions from the DEAE-Sepharose chromatography which were active at pH 7.5 were pooled and dialyzed against buffer A for 12 h prior to loading onto an HPLC ion exchange chromatography column (Mono-Q HR 5/5, Pharmacia, Uppsala, Sweden), previously equilibrated with buffer A. Bound proteins were eluted with a linear gradient of 0.1 to 0.45 M NaCl and the active fractions were detected using pNPG as substrate at pH 7.5 as described above. […] For the further purification of Form II the active fractions of the peak II were chromatographed on hydrophobic interaction chromatography. The fractions were pooled, brought to 1 M (NH4)2SO4 and loaded on to a hydrophobic interaction column (phenyl-Sepharose CL-4B, 0.5×12 cm, Pharmacia, Uppsala, Sweden) previously equilibrated with buffer A containing 1 M (NH4)2SO4. The protein was eluted with a reverse stepwise gradient from 1 to 0 M (NH4)2SO4 with 50 mM intervals in buffer A. Fractions containing the activity peak were collected and dialyzed for 12 h against buffer A and the dialysate was concentrated by reverse dialysis against solid sucrose. The enzyme, partially purified by hydrophobic interaction chromatography, was used for the characterization of Form II. The active fractions from the hydrophobic interaction column were further purified. Active fractions were separated electrophoretically using a Mini Prep Cell (Bio-Rad Laboratories, Hercules, Calif.) for discontinuous native-PAGE with 7% polyacrylamide, according to manufacturer's instructions. Fractions (0.25 ml/fraction) were assayed at pH 7.5 with pNPG as substrate for the activity. The active fractions were pooled, concentrated by Vivaspin Concentrator (Vivascience LTD, Lincoln, England), and run in a 8% SDS-PAGE. Proteins in the SDS-PAGE were identified using Coomassie Blue staining.

[6] = molecular target: T2, melon (Cucumis melo) fruit alkaline alpha-galactosidase Form I (Cucumis melo, UniProt Q84NI7); assay: Substrate kinetics (Lineweaver-Burk) of alkaline alpha-galactosidase Form I
T2 sequence (Q84NI7 1-754): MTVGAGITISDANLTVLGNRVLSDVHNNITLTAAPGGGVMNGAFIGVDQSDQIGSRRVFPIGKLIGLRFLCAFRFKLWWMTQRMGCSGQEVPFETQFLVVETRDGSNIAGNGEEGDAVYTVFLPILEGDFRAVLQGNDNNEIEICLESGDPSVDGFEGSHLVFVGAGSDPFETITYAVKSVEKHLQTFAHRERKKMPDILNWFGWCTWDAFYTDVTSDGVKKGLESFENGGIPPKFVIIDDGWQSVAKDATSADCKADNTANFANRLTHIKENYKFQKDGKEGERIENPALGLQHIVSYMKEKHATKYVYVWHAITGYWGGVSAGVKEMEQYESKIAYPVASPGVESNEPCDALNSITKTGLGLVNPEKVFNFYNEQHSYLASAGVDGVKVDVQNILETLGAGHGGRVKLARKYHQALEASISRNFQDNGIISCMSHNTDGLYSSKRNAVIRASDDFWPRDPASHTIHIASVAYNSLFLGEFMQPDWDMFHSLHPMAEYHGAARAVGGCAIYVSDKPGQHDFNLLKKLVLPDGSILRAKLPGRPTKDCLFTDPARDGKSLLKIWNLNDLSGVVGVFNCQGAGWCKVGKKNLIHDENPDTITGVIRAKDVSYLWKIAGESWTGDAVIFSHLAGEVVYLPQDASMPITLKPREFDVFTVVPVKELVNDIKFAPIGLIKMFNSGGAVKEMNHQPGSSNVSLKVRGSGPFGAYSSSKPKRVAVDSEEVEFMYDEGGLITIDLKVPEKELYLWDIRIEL
Method: as §1, §2
(§3) Therefore, the active fractions from the Mono-Q column were used for the characterization of Form I. In addition, the Form I enzyme was further purified, as described in the following section.

[7] = system: Escherichia coli K12 alpha-galactosidase; settings: Schmid and Schmitt 1976; cited from earlier work
[8] = system: melon (Cucumis melo) fruit acid form alpha-galactosidase; assay: Substrate kinetics (Lineweaver-Burk) of acid alpha-galactosidase; format: biochemical, muskmelon (Cucumis melo L. cv C-8)
Method: (§4) For routine analysis and monitoring the activity in the purification steps, alpha-galactosidase was assayed as described by Smart and Pharr (“Characterization of alpha-galactosidase from cucumber leaves”, Plant Physiology, 66:731-734, 1980), using p-nitrophenyl alpha-galactoside (pNPG) as substrate. […] The reaction was terminated after 10 min by adding 1 ml of 5% (w/v) Na2CO3 and activity expressed as nmol nitrophenol per min as measured at 410 nm. […] The assay was started by adding 50 μl enzyme preparation at 35 C and terminated after 10 to 20 min by 2 min boiling. […] For the partial purification of the acid form of alpha-galactosidase the fractions active at pH 5.5 were pooled and concentrated by reverse dialysis against solid sucrose. […] The active fractions were then desalted by dialysis against buffer A for 12 hours with two changes of the buffer. This enzyme fraction was used for the characterization of the acidic form of alpha-galactosidase. […] The substrate specificity of the alpha-galactosidases was tested with pNPG, stachyose, raffinose, melibiose or guar gum (Sigma).

[9] = system: Cucurbita pepo leaf alkaline alpha-galactosidase; settings: 6.4 mM galactose; 7.5 mM pNPG, pH 7.5; cited from earlier work
[10] = molecular target: T2, melon (Cucumis melo) fruit alkaline alpha-galactosidase Form I; assay: Inhibition of alkaline alpha-galactosidase Form I by galactose, pNPG as substrate; format: biochemical, muskmelon (Cucumis melo L. cv C-8); design: native 84 kDa, denatured 79 kDa; assayed at pH 7.5
Method: as §1, §2, §3

[11] = system: melon (Cucumis melo) fruit acid form alpha-galactosidase; assay: Inhibition of acid alpha-galactosidase by galactose, pNPG as substrate; format: biochemical, muskmelon (Cucumis melo L. cv C-8)
Method: as §4

[12] = molecular target: T1, melon (Cucumis melo) fruit alkaline alpha-galactosidase Form II; assay: Inhibition of alkaline alpha-galactosidase Form II by galactose, pNPG as substrate; format: biochemical, muskmelon (Cucumis melo L. cv C-8)
Method: as §1
as §2, with “Active fractions were separated electrophoretically using a Mini Prep Cell (Bio-Rad Laboratories, Hercules, Calif.) for discontinuous native-PAGE with 7% polyacrylamide, according to manufacturer's instructions. Fractions (0.25 ml/fraction) were assayed at pH 7.5 with pNPG as substrate for the activity. The active fractions were pooled, concentrated by Vivaspin Concentrator (Vivascience LTD, Lincoln, England), and run in a 8% SDS-PAGE. Proteins in the SDS-PAGE were identified using Coomassie Blue staining.” left out

In the case of OC[C@H]1O[C@H](OC[C@H]2O[C@H](O[C@]3(CO)O[C@H](CO)[C@@H](O)[C@@H]3O)[C@H](O)[C@@H](O)[C@@H]2O)[C@H](O)[C@@H](O)[C@H]1O [Raffinose, O-alpha-D-galactopyranosyl-(1-6)-O-alpha-D-glucopyranosyl-(1-2)-beta-D-fructofuranoside], the inhibition at 80000 µM [1] is listed as 35%, the Km [2] is listed as 17 mM and the Vmax/Km ratio [3] is listed as 0.0039. For the same compound, the Km [4] was 36.4 mM, the Vmax/Km ratio [5] was 0.01 and the Vmax ([5]; Lineweaver-Burk) was 0.28 μmol mg^−1 protein min^−1. The Vmax/Km ratio [6] was 0.37, the Km ([6]; Lineweaver-Burk) was under 5 mM and the Vmax ([6]; Lineweaver-Burk) was 0.56 μmol mg^−1 protein min^−1. For the same compound, the Km [7] was 60 mM, the Vmax/Km ratio [8] was 0.17 and the Km ([8]; Lineweaver-Burk) was 4.2 mM. For the same compound, the Vmax ([8]; Lineweaver-Burk) was 0.71 μmol mg^−1 protein min^−1.

For OC[C@H]1O[C@H](O)[C@H](O)[C@@H](O)[C@H]1O [galactose, alpha-D-galactose], the “reduction of reaction velocity by galactose” value [9] is listed as 50%, the inhibition at 8000 µM ([10]; 8 mM galactose, 10 mM pNPG, alkaline Form I) is listed as 8% and the “inhibition type (galactose)” value ([10]; alkaline Form I, Lineweaver-Burk) is listed as “competitive”. For the same compound, the Ki ([10]; alkaline Form I, competitive, Lineweaver-Burk) was 13000 µM, the “inhibition of catalytic activity by galactose (in words)” value ([10]; alkaline alpha galactosidase of the invention, FIG. 4D-F) was “no inhibition of catalytic activity” and the “reduction in activity by galactose” value ([11]; 8 mM galactose, 10 mM pNPG) was 65%. The “inhibition type (galactose)” value ([11]; Lineweaver-Burk) was “competitive”, the Ki ([11]; competitive, Lineweaver-Burk) was 60 µM and the inhibition at 8000 µM ([12]; 8 mM galactose, 10 mM pNPG, read-out: reduction in activity by galactose) was 70%. For the same compound, the “inhibition type (galactose)” value ([12]; Lineweaver-Burk) was “competitive” and the Ki ([12]; competitive, Lineweaver-Burk) was 1300 µM.
